# From patent publication US12077503B2, “Substituted cyclic amides and their use as herbicides” (FMC CORPORATION, priority 2015, dated 2024)
# Key:
# Assay type in all cases: in vivo
# [1] = system: Kochia (Kochia scoparia); assay: Test A preemergence
# Method in brief: (§1)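 Visual injury scores from 0, no effect, to 100, complete control, were assigned versus untreated controls roughly 10 d after treatment in the greenhouse. Test chemicals, formulated with surfactant in a non-phytotoxic solvent, were applied to planted seeds as a preemergence soil spray or postemergence to one- to two-leaf plants 2 to 10 cm tall, in loam–sand soil.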
# [2] = system: barnyardgrass (Echinochloa crus-galli); assay: Test A preemergence
# Method in brief: as §1
# [3] = system: giant foxtail (Setaria faberii); assay: Test A preemergence
# Method in brief: as §1
# [4] = system: pigweed (Amaranthus retroflexus); assay: Test A preemergence
# [5] = system: ragweed (common ragweed, Ambrosia elatior); assay: Test A preemergence
# Method in brief: as §1
# [6] = system: ryegrass, Italian (Italian ryegrass, Lolium multiflorum); assay: Test A preemergence
# Method in brief: as §1
# [7] = system: Galium (catchweed bedstraw, Galium aparine); assay: Test A postemergence
# Method in brief: as §1
# [8] = system: Kochia (Kochia scoparia); assay: Test A postemergence
# Method in brief: as §1
# [9] = system: barnyardgrass (Echinochloa crus-galli); assay: Test A postemergence
# Method in brief: as §1
# [10] = system: blackgrass (Alopecurus myosuroides); assay: Test A postemergence
# Method in brief: as §1
# [11] = system: corn (Zea mays); assay: Test A postemergence
# Method in brief: as §1
# [12] = system: giant foxtail (Setaria faberii); assay: Test A postemergence
# Method in brief: as §1
# [13] = system: pigweed (Amaranthus retroflexus); assay: Test A postemergence
# Method in brief: as §1
# [14] = system: ragweed (common ragweed, Ambrosia elatior); assay: Test A postemergence
# Method in brief: as §1
# [15] = system: ryegrass, Italian (Italian ryegrass, Lolium multiflorum); assay: Test A postemergence
# Method in brief: as §1
# [16] = system: wheat (Triticum aestivum); assay: Test A postemergence
# Method in brief: as §1
# [17] = system: barnyardgrass (Echinochloa crus-galli); assay: Test B flooded paddy test; settings: Flood, 250 g ai/ha; 0 to 100 scale where 0 is no effect and 100 is complete control; 13 to 15 d
# Method in brief: (§2)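 Visual ratings (0 none to 100 complete control) are relative to untreated plants, taken 13–15 d after treatment in a greenhouse. Test material went straight into floodwater standing 3 cm above the soil, kept constant, on plants at the 2-leaf stage.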
# [18] = system: ducksalad (Heteranthera limosa); assay: Test B flooded paddy test; settings: Flood, 250 g ai/ha; 0 to 100 scale where 0 is no effect and 100 is complete control; 13 to 15 d
# Method in brief: as §2
# [19] = system: rice (Oryra sativa); assay: Test B flooded paddy test; settings: Flood, 250 g ai/ha; 0 to 100 scale where 0 is no effect and 100 is complete control; 13 to 15 d
# Method in brief: as §2
# [20] = system: sedge, umbrella (small-flower umbrella sedge, Cyperus difformis); assay: Test B flooded paddy test; settings: Flood, 250 g ai/ha; 0 to 100 scale where 0 is no effect and 100 is complete control; 13 to 15 d
# Method in brief: as §2
# [21] = system: lambsquarters (Chenopodium album); assay: Test C preemergence; settings: for Plant response rating (scale of 0 to 100), Lambsquarters: 31 g ai/ha, 0 is no effect, 100 is complete control; for Plant response rating, Lambsquarters: scale 0 to 100, 0 no effect, 100 complete control
# Method in brief: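 Greenhouse test: seeds in a loam and sand blend treated preemergence, or seedlings at the 1- to 4-leaf stage (2 to 18 cm) in a peat, vermiculite and limestone mix treated postemergence, with test chemicals in a surfactant-containing non-phytotoxic solvent. Scored by eye at 13 to 15 d relative to controls, 0 (no effect) to 100 (complete control).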
# [22] = 125 g ai/ha, Preemergence, visual injury after approximately 10 d, 0 to 100 scale where 0 is no effect and 100 is complete control
# [23] = 500 g ai/ha, preemergence, 0 to 100 scale, 0 = no effect, 100 = complete control
# [24] = 125 g ai/ha, postemergence, visual rating after approx. 10 d, 0 to 100 scale (0 no effect, 100 complete control)
# [25] = 500 g ai/ha, postemergence, visual injury, 0 to 100 scale (0 no effect, 100 complete control), approx. 10 d
# [26] = Preemergence, 500 g ai/ha, visual injury approx. 10 d
# [27] = 125 g ai/ha, postemergence, visual injury rating on 0 to 100 scale (0 no effect, 100 complete control), approx. 10 d
# [28] = Postemergence, 500 g ai/ha, 0 to 100 scale where 0 is no effect and 100 is complete control
smiles,measurement,setting,value
Cc1ccc(C2CN(C)C(=O)C2C(=O)Nc2cccc(F)c2F)cc1 (centres unmarked) [Compound 662],"Plant response rating, Kochia",[1]; [22],70
same,"Plant response rating, Kochia",[1]; [23],90
same,"Plant response rating, Barnyardgrass",[2]; [22],90
same,"Plant response rating, Barnyardgrass",[2]; [23],90
same,"Plant response rating, Foxtail, Giant",[3]; [22],100
same,"Plant response rating, Foxtail, Giant",[3]; [23],100
same,"Plant response rating, Pigweed",[4]; [22],70
same,"Plant response rating, Pigweed",[4]; [23],80
same,"Plant response rating, Ragweed",[5]; [22],80
same,"Plant response rating, Ragweed",[5]; [23],80
same,"Plant response rating, Ryegrass, Italian",[6]; [22],40
same,"Plant response rating, Ryegrass, Italian",[6]; [23],90
same,"Plant response rating, Galium",[7]; [24],60
same,"Plant response rating, Galium",[7]; [25],70
same,"Plant response rating, Kochia",[8]; [24],70
same,"Plant response rating, Kochia",[8]; [25],70
same,"Plant response rating, Barnyardgrass",[9]; [24],90
same,"Plant response rating, Barnyardgrass",[9]; [25],90
same,"Plant response rating, Blackgrass",[10]; [24],60
same,"Plant response rating, Blackgrass",[10]; [25],80
same,"Plant response rating, Corn",[11]; [24],80
same,"Plant response rating, Corn",[11]; [25],90
same,"Plant response rating, Foxtail, Giant",[12]; [24],90
same,"Plant response rating, Foxtail, Giant",[12]; [25],90
same,"Plant response rating, Pigweed",[13]; [24],20
same,"Plant response rating, Pigweed",[13]; [25],50
same,"Plant response rating, Ragweed",[14]; [24],20
same,"Plant response rating, Ragweed",[14]; [25],60
same,"Plant response rating, Ryegrass, Italian",[15]; [24],40
same,"Plant response rating, Ryegrass, Italian",[15]; [25],70
same,"Plant response rating, Wheat",[16]; [24],80
same,"Plant response rating, Wheat",[16]; [25],80
same,"Plant response rating, Barnyardgrass",[17],80
same,"Plant response rating, Ducksalad",[18],95
same,"Plant response rating, Rice",[19],20
same,"Plant response rating, Sedge, Umbrella",[20],0
same,"Plant response rating (scale of 0 to 100), Lambsquarters",[21],100
same,"Plant response rating, Lambsquarters",[21]; 62 g ai/ha,85
same,"Plant response rating, Lambsquarters",[21]; 125 g ai/ha,100
same,"Plant response rating, Lambsquarters",[21]; 250 g ai/ha,100
O=C1NCC(c2cc(F)cc(Cl)c2)C1C(=O)Nc1cccc(F)c1F (centres unmarked) [Compound 492],"Plant response rating, Kochia",[1]; [22],60
same,"Kochia plant response rating (0 to 100 scale, 0 is no effect, 100 is complete control)",[1]; [26],70
same,"Plant response rating, Barnyardgrass",[2]; [22],90
same,"Barnyardgrass plant response rating (0 to 100 scale, 0 is no effect, 100 is complete control)",[2]; [26],90
same,"Plant response rating, Foxtail, Giant",[3]; [22],90
same,"Foxtail, Giant plant response rating (0 to 100 scale, 0 is no effect, 100 is complete control)",[3]; [26],90
same,"Plant response rating, Pigweed",[4]; [22],0
same,"Pigweed plant response rating (0 to 100 scale, 0 is no effect, 100 is complete control)",[4]; [26],70
same,"Plant response rating, Ragweed",[5]; [22],30
same,"Ragweed plant response rating (0 to 100 scale, 0 is no effect, 100 is complete control)",[5]; [26],80
same,"Plant response rating, Ryegrass, Italian",[6]; [22],50
same,"Ryegrass, Italian plant response rating (0 to 100 scale, 0 is no effect, 100 is complete control)",[6]; [26],50
same,Galium plant response rating,[7]; [27],50
same,"Plant response rating, Galium",[7]; [28],60
same,Kochia plant response rating,[8]; [27],40
same,"Plant response rating, Kochia",[8]; [28],60
same,Barnyardgrass plant response rating,[9]; [27],90
same,"Plant response rating, Barnyardgrass",[9]; [28],90
same,Blackgrass plant response rating,[10]; [27],50
same,"Plant response rating, Blackgrass",[10]; [28],70
same,Corn plant response rating,[11]; [27],70
same,"Plant response rating, Corn",[11]; [28],80
same,"Foxtail, Giant plant response rating",[12]; [27],90
same,"Plant response rating, Foxtail, Giant",[12]; [28],90
same,Pigweed plant response rating,[13]; [27],40
same,"Plant response rating, Pigweed",[13]; [28],60
same,Ragweed plant response rating,[14]; [27],30
same,"Plant response rating, Ragweed",[14]; [28],70
same,"Ryegrass, Italian plant response rating",[15]; [27],20
same,"Plant response rating, Ryegrass, Italian",[15]; [28],50
same,Wheat plant response rating,[16]; [27],20
same,"Plant response rating, Wheat",[16]; [28],60
same,"Plant response rating, Barnyardgrass",[17],65
same,"Plant response rating, Ducksalad",[18],100
same,"Plant response rating, Rice",[19],25
same,"Plant response rating, Sedge, Umbrella",[20],0
same,"Plant response rating (scale of 0 to 100), Lambsquarters",[21],25
same,"Plant response rating, Lambsquarters",[21]; 62 g ai/ha,35
same,"Plant response rating, Lambsquarters",[21]; 125 g ai/ha,40
same,"Plant response rating, Lambsquarters",[21]; 250 g ai/ha,50
